US9309304B2, “Glycation cross-link breakers to increase resistance to enzymatic degradation” (NEW YORK SOCIETY FOR THE RUPTURED AND CRIPPLED MAINTAINING …, priority 2012, dated 2016)

Columns and labels:
collagenase = test: CEMKATS test of Alagebrium-treated 7-day glycated tendon fibers (Example 6); assay type: biochemical; details: 15 mM Alagebrium 12 hours
Protocol: 7-day glycated (cross-linked) tendon fibers are immersed for 12 hours in a solution of 15 mM Alagebrium dissolved in PBS at a temperature ranging from about 4° C. to 37° C. The fibers are removed from the solution, rinsed in PBS, and then soaked in fresh PBS for 15 minutes. After this soak, the fibers are removed from the PBS bath, rinsed with fresh PBS. The visible PBS is blotted off and the fibers are interfaced with the CEMKATS system. Mechanical strain is applied as described in Example 1. The fiber reaches a peak stress during loading and subsequently relaxes to an equilibrium stress. Once the specimen reaches equilibrium, collagenase would be added. The resulting change in load would be observed and recorded (which would be converted post-hoc to stress).

[1] = AGE cross-links in treated graft tissue by FTIR spectrum
Protocol: For an ACL reconstruction, a bone-patellar tendon-bone graft (other eligible grafts include hamstring tendon) is harvested from a cadaveric donor per standard collection procedure. Before freezing, the graft tissue is immersed in a sterile filtered isotonic buffered saline solution containing Alagebrium at a concentration of 0.1 mM for 8 hours at a temperature of ranging from about 4° C. to 37° C. Following incubation with the cross-link breaking reagent, the specimen is rinsed with sterile isotonic buffered saline and then is immersed in a rinsing fluid, such as sterile isotonic buffered saline, with a volume of at least 10 times greater than the estimated volume of the specimen. The specimen remains immersed in the rinse fluid for 30 minutes. The rinsing and immersion step is repeated twice more with fresh rinse solution each time. The tissue specimen is then removed from the fluid, excess liquid is allowed to drain, any visible fluid is gently blotted off with sterile gauze, and is then frozen as per standard procedure. For an ACL reconstruction, a bone-patellar tendon-bone graft (other eligible grafts include hamstring tendon) is harvested from the patient as per standard collecting procedure. Before use, the graft tissue is wrapped in sterile gauze and is soaked in a sterile filtered isotonic buffered saline solution containing Alagebrium at a concentration of 100 mM for 15 minutes at a temperature ranging from about 4° C. to 37° C. Following incubation with the cross-link breaking reagent, the specimen is unwrapped, rinsed with sterile istonic buffered saline and then is wrapped again with sterile gauze and immersed in a rinsing fluid, such as sterile isotonic buffered saline, with a volume of at least 10 times greater than the estimated volume of the specimen. The specimen remains immersed in the rinse fluid for 15 minutes. The tissue specimen is then removed from the fluid, unwrapped, excess liquid is allowed to drain, any visible fluid is gently blotted off with sterile gauze, and then the graft is utilized as per standard procedure. […]

[2] = Randomized control trial of treated grafts for ACL reconstruction; assay type: in vivo; details: for relative risk of negative outcomes (Lachman test, pivot-shift test, Drawer test): 6 and 12 months post-surgery
Protocol: For an ACL reconstruction, a bone-patellar tendon-bone graft (other eligible grafts include hamstring tendon) is harvested from a cadaveric donor per standard collection procedure. Before freezing, the graft tissue is immersed in a sterile filtered isotonic buffered saline solution containing Alagebrium at a concentration of 0.1 mM for 8 hours at a temperature of ranging from about 4° C. to 37° C. Following incubation with the cross-link breaking reagent, the specimen is rinsed with sterile isotonic buffered saline and then is immersed in a rinsing fluid, such as sterile isotonic buffered saline, with a volume of at least 10 times greater than the estimated volume of the specimen. The specimen remains immersed in the rinse fluid for 30 minutes. The rinsing and immersion step is repeated twice more with fresh rinse solution each time. The tissue specimen is then removed from the fluid, excess liquid is allowed to drain, any visible fluid is gently blotted off with sterile gauze, and is then frozen as per standard procedure. […] For an ACL reconstruction, a bone-patellar tendon-bone graft (other eligible grafts include hamstring tendon) is harvested from the patient as per standard collecting procedure. Before use, the graft tissue is wrapped in sterile gauze and is soaked in a sterile filtered isotonic buffered saline solution containing Alagebrium at a concentration of 100 mM for 15 minutes at a temperature ranging from about 4° C. to 37° C. Following incubation with the cross-link breaking reagent, the specimen is unwrapped, rinsed with sterile istonic buffered saline and then is wrapped again with sterile gauze and immersed in a rinsing fluid, such as sterile isotonic buffered saline, with a volume of at least 10 times greater than the estimated volume of the specimen. The specimen remains immersed in the rinse fluid for 15 minutes. The tissue specimen is then removed from the fluid, unwrapped, excess liquid is allowed to drain, any visible fluid is gently blotted off with sterile gauze, and then the graft is utilized as per standard procedure.

[3] = Relative fluorescence of solubilized fibers; assay type: physicochemical, rat; details: 7 days of 0.2 M ribose exposure, about 460 nm
Protocol: Ribose incorporation into fibers over time was assessed by fluorescence of solubilized fibers following 0 to 10 days of incubation (Verzijl et al. 2002). Fibers were incubated in 0.2 M ribose solution (solution was exchanged with fresh ribose solution at day 3) and sample fibers were removed daily, rinsed in PBS, and then stored at 4° C. until the end of the time course. Fibers were weighed, then dissolved at 60° C. in a 1:20 dilution of papain (Carica Papaya, Roche Diagnostics, Indianapolis, Ind.) in buffer per the commercial protocol at a concentration of 1 mg tendon per 50 uL of papain solution. Relative fluorescence was measured at about 460 nm using a spectrophotometer (340 ATTC, Tecan US, Chapel Hill, N.C.) as reported by Verzijl et al. 2002. Maximum fluorescence was estimated from measurements of fibers incubated in ribose for 5 weeks.

[4] = cadaveric bone-patellar tendon-bone graft, 0.1 mM for 8 hours

Row | SMILES | EMK function values versus cross-linked control specimens (collagenase; higher strain (above about 3%)) | EMK function values versus cross-linked control specimens (collagenase; low strain (less than about 1.25%)) | amounts of AGE cross-links (AGE associated absorption peak, FTIR) ([1]; autologous bone-patellar tendon-bone graft, 100 mM for 15 minutes) | amounts of AGE cross-links (AGE associated absorption peak, FTIR) [1, 4] | stiffness of treated specimen [1, 4] | surgical outcome of ACL reconstruction ([2]; operating room treated autograft, 100 mM for 15 minutes) | surgical outcome of ACL reconstruction ([2]; tissue bank treated graft, 0.1 mM for 8 hours) | relative risk of negative outcomes (Lachman test, pivot-shift test, Drawer test) ([2]; versus placebo-treated grafts, operating room treated autograft) | relative risk of negative outcomes (Lachman test, pivot-shift test, Drawer test) ([2]; versus untreated grafts, tissue bank treated graft) | relative fluorescence of solubilized rat tail tendon [3]
1 | Cc1sc[n+](CC(=O)c2ccccc2)c1C.[Cl-] [Alagebrium, 3-phenacyl-4,5-dimethylthiazolium chloride] | higher value for the control specimens than the Alagebrium-treated specimens | lower for controls than Alagebrium-treated specimens | significantly decreased amounts of AGE cross-links | significantly decreased amounts of AGE cross-links | less stiff after treatment | improved surgical outcome | improved surgical outcome | lower relative risk | lower relative risk | 
2 | O=C[C@H](O)[C@H](O)[C@H](O)CO [ribose, D-Ribose] |  |  |  |  |  |  |  |  |  | significantly increased
